Results: US9682928B2 (NeuroPro Therapeutics, Inc., priority 2009, dated 2017)
“Also recorded” adds a separate entry of the source.

What was measured:
Mice = experiment: 6 Hz (Mice); type: in vivo
Male CD-1 mice = experiment: 52° C. warm water tail-flick test (acute nociceptive study); type: in vivo, mouse; conditions: for Activity in tail-flick test: all doses starting at 32 mg/kg (NTP-2014) or 56 mg/kg (NTP-2026, NTP-2024); for % Antinociception: A50 not determined
Text: Subjects: Male CD-1 (25-35 g, Charles River) were used for all studies. Mice were housed in groups of five in Plexiglas chambers with food and water available ad libitum. All animals were maintained on a 12 hr light/dark cycle (lights on at 7:00 AM) in a temperature- and humidity-controlled animal colony. The health status of the animals used in this study were examined on arrival. Only animals in good health were acclimatized to laboratory conditions and used in the study. The acclimation period to the vivarium was a minimum of 7 days. All animal experiments were performed under an approved protocol in accordance with institutional guidelines and in accordance with the Guide for the Care and Use of Laboratory Animals as adopted and promulgated by the National Institutes of Health.
Behavioral Testing: Efficacy of the test compounds were assessed using the 52° C. warm water tail-flick test. The latency to the first sign of a rapid tail-flick was taken as the behavioral endpoint (Jannsen, et al. 1963). Each mouse was first tested for baseline latency by immersing its tail in the water and recording the time to response. Mice not responding within 5 seconds were excluded from further testing. Test compounds were then injected and the mice were rested for thermal latencies at 10, 20, 30, 45, 60, 90, 120 and 180 minutes post-injection (if a drug effect dropped below 20% for the group average then the testing was halted for that group). Antinociception was calculated by the following formula: % Antinociception=100×(test latency−control latency)/(10-control latency). A maximum score was assigned (100%) to animals not responding within 10 seconds to avoid tissue damage.
Preparation of Test Materials: NTP-2014 (m.w. 420.52 for free base; lot number: 004JXS047) was dissolved in 0.2% hydroxypropylmethylcellulose (HPMC) in physiological saline to yield final concentrations of between 3.2 and 10 mg/ml (pH ˜7.4). NTP-2024 (m.w. 433.52 for free base; lot number: 024DGM048) was dissolved in 0.2% HPMC in physiological saline to yield final concentrations of between 5.6 and 18 mg/ml (pH ˜7.4). NTP-2026 (m.w. 462.61 for free base; lot number: 002JRA064) was first dissolved in 100% ETOH (10× solution) and then this stock solution was diluted to final concentrations of 5.6-10 mg/ml using 0.2% HPMC in physiological saline (pH ˜7.4). Final ETOH concentration was approximately 10%. Tween 80 (1-2 drops) was added to all solutions to aid in solubilization of compounds.
All groups contained n=8-10 mice.

male Sprague Dawley rats = experiment: Taxol-induced peripheral neuropathy (rat), mechanical allodynia (von Frey); type: in vivo; conditions: for Pain relief as measured by mechanical allodynia: rat, IP, Day 32, 75 mg/kg (NTP-2014, NTP-2026)
Text: In this study, an animal model of Taxol-induced sensory neuropathy was employed to evaluate the effects of the sponsor's test compounds, for response to tactile sensitivity using von Frey test of mechanical allodynia. […] Therefore, Taxol-induced mechanical allodynia was employed as the measured behavioral endpoint.
The test substance was homogenized and dispersed using a mortar and a pestle in 0.2% hydroxypropylmethylcellulose (HPMC) in physiological saline, which served as the vehicle. Test articles were administered intraperitoneally in dose volumes of 10 mL/kg body weight. Preparations were made freshly for each day of administration.
Prior to test article NTP-2024 and vehicle control group administration, rats were pretreated at 30 minutes and again at 10 minutes prior to test article administration with a general metabolic inhibitor, piperonyl butoxide (150 mg/kg i.p.) in DMSO, at a volume of 1 mL/kg.
The reference article, Gabapentin, was formulated in saline to a concentration of 100 mg/mL and delivered […] at a dose volume of 1 mL/kg body weight (for a dosing concentration of 100 mg/kg).
All animals were administered Taxol, 2 mg/kg, IP at a dose volume of 1 mL/kg, on Days 1, 3, 5 and 7.
On Day 32, all animals received a single intraperitoneal injection of test article or vehicle according to Tables 1 and 2. For group 1 (vehicle), rats were pre-treated with Piperonyl butoxide (150 mg/kg IP, dose volume of 1 mL/kg) at 30 minutes and again at 10 minutes prior to vehicle administration. Four animals in group 3 (NTP-2024) were also pre-treated with Piperonyl butoxide (150 mg/kg IP, dose volume of 1 mL/kg) at 30 minutes and again at 10 minutes prior to vehicle administration. Animals in Groups 2, 3, 4, & 5 were pre-treated with Saline (dose volume of 1 mL/kg, IP) at 30 minutes and again at 10 minutes prior to test article administration. With the exception of animals in group 2, the animals received an IP injection of vehicle or test article 30 min prior to mechanical allodynia testing. Animals were dosed at a volume of 10 mL/kg.
Animals in group 2, received an IP injection of Gabapentin 90 minutes prior to mechanical allodynia testing. Animals were dosed at a volume of 1 mL/kg.
All animals underwent von Frey testing for mechanical allodynia. On testing days, the animals were returned to the chambers and allowed approximately 15 minutes to explore their surroundings prior to testing. A series of filaments were applied to the left hind paw. A 2.0 g filament was first applied to the plantar surface, if the animal responded to the filament (by lifting its paw) then the next smaller filament was applied. […] This is repeated in an “Up down” method for four responses after the first initial change in response.
The original study design used thermal hyperalgesia as the main parameter for testing the ability of the test compounds to ameliorate the pain associated with the Taxol injection. The treatment inclusion was set at a 20% drop from baseline values as determined on Day 28. […] The study design was amended to use mechanical allodynia as the testing parameter. […] This changed the testing days from Day 28 to Day 31 for allodynia confirmation and Day 29 to Day 32 for testing the article efficacy. Additional animals were received to complete the group size designation. These animals were tested for mechanical allodynia only. The study was then further amended to remove the piperonyl butoxide as a pre-treatment for Group 3 (NTP-2024). […] Because this study was conducted in two portions, four (4) animals from Group 3 received the metabolic inhibitor and five (5) received Saline as a pre-treatment.
The group mean results were analyzed versus the vehicle control group using a two way ANOVA, followed by a Bonferroni post-hoc test. Individual groups were tested pre and post dose using a paired t-test.

CCCCN(CCCC)c1cc(C(=O)O)cc(S(N)(=O)=O)c1Oc1ccccc1 [NTP-2014, 3-Aminosulfonyl-5-N,N-dibutylamino-4-phenoxybenzoic acid]
Toxicity in 6 Hz study (Mice; 100 mg/kg): mg/kg. No toxicity.
Suppression / activity in 6 Hz (Mice; 100 mg/kg, NTP-2014: all animals to 1 h, majority through 4 h, NTP-2026: 2 timepoints (2 hr, 4 hr)): Complete
Activity in tail-flick test (Male CD-1 mice; mice): effective analgesic effects; also recorded: Significant activity in tail-
% anti-nociception relative to high dose morphine (Male CD-1 mice; tail-flick test, mice, without behavioral observations): nociception equal to high
Activity compared to GBP at 100 mg/kg (male Sprague Dawley rats; 75 mg/kg): mechanical allodynia-equal to if not better activity
Pain relief as measured by mechanical allodynia (male Sprague Dawley rats; 75 mg/kg): significant improvement in allodynia; also recorded: significant treatment effect; also recorded: effective analgesic effects

CCCCNc1cc(C(=O)NN2CCOCC2)cc(S(N)(=O)=O)c1Oc1ccccc1 [NTP-2024, N-Morpholinyl 3-Aminosulfonyl-5-N-butylamino-4-phenoxybenzamide]
Activity in 6 Hz (Mice; doses up to 200 mg/kg, no metabolic inhibitor coadministered): No activity at doses
% Antinociception (Male CD-1 mice; 180 mg/kg): ~48%
Activity in tail-flick test (Male CD-1 mice; mice): Significant activity in tail-
Mean allodynia score (male Sprague Dawley rats; metabolic inhibitor pre-treatment removed): 8.04 g
Mean allodynia score (male Sprague Dawley rats; pre-treated with the metabolic inhibitor (PBx)): 14.92 g

CCCCNc1cc(C(=O)N(C)CCCN(C)C)cc(S(N)(=O)=O)c1Oc1ccccc1 [NTP-2026, N-(3-(Dimethylamino)propyl)-N-methyl 3-Aminosulfonyl-5-N-butylamino-4-phenoxybenzamide]
Toxicity in 6 Hz study (Mice; 100 mg/kg): No toxicity.
% Antinociception (Male CD-1 mice; 56 mg/kg): ~25%
Activity in tail-flick test (Male CD-1 mice; mice): Significant activity in tail-
Animals with complete reversal of allodynia (male Sprague Dawley rats; group of nine rats): Three of the nine animals
Pain relief as measured by mechanical allodynia (male Sprague Dawley rats; 75 mg/kg): slight improvement; also recorded: Several animals demonstrated complete responses
